Laboratory results reported in patent US20080021026A1, “BENZOTHIOPHENE INHIBITORS OF RHO KINASE” (priority 2006, published 2008).
pIC50: −log10 of the molar value.

biological target: T1, recombinant N-terminal GST-tagged human Rho kinase 2 (ROCK2, amino acids 1-552) (Homo sapiens, UniProt O75116); test: In vitro Rho kinase assay (luciferase-based ATP consumption), ROCK2; format: biochemical; settings: recombinant GST-tagged human ROCK2, luciferase-based ATP consumption; read-out: ROCK2 IC50
T1 construct: ROCK2, amino acids 1-552; purchased Invitrogen Inc. PV3759
T1 sequence (O75116 1-552): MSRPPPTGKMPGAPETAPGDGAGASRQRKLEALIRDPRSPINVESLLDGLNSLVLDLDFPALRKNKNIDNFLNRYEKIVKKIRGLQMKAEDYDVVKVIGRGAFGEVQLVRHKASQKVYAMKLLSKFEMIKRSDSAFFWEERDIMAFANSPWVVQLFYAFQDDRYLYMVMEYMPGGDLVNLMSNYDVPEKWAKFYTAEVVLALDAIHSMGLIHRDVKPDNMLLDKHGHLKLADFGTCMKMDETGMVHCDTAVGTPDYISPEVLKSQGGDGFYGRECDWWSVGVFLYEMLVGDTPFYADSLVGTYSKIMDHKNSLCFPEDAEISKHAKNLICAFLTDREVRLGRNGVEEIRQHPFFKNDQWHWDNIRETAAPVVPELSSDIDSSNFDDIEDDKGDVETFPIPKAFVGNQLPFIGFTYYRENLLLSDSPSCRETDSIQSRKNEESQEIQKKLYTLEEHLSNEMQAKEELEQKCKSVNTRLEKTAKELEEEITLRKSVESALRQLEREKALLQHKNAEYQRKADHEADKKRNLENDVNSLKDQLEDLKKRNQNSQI
How it was run: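 Luciferase-based luminescence of leftover ATP after 2 h at 30 °C, where inhibition raises signal, reports activity of GST-tagged ROCK2 (aa 1-552) at 0.82 μg/ml. Conditions: S6 peptide 100 μg/ml, […], pH 7.5 Tris buffer. Results given as percent of H-1152P control activity.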

| SMILES | pIC50 |
| --- | --- |
| COc1ccc2cc(C(C)C(=O)NCc3ccc4sc(-c5ccnc(N)n5)c(C)c4c3)ccc2c1 (stereo not shown) [Example 307, COc1ccc2cc(ccc2c1)[C](C)C(═O)NCc3ccc4sc(c(C)c4c3)-c5ccnc(N)n5] | < 5.30 |
| Cc1cc(C(=O)NCc2ccc3sc(-c4ccnc(N)n4)c(C)c3c2)ccc1Br [Example 286, Cc1cc(ccc1Br)C(═O)NCc2ccc3sc(c(C)c3c2)-c4ccnc(N)n4] | < 5.30 |
| Cc1c(-c2ccnc(N)n2)sc2ccc(C(=O)N3CCN(Cc4ccc5c(c4)OCO5)CC3)cc12 [Example 563, Cc1c(sc2ccc(cc12)C(═O)N3CCN(CC3)Cc4ccc5OCOc5c4)-c6ccnc(N)n6] | > 5.30 |
| COc1cccc(N2CCN(C(=O)c3ccc4sc(-c5ccnc(N)n5)c(C)c4c3)CC2)c1 [Example 542, COc1cccc(c1)N2CCN(CC2)C(═O)c3ccc4sc(c(C)c4c3)-c5ccnc(N)n5] | < 5.30 |
| Cc1c(-c2ccnc(N)n2)sc2ccc(C(=O)N3CCCC3CO)cc12 (stereo not shown) [Example 475, Cc1c(sc2ccc(cc12)C(═O)N3CCCC3CO)-c4ccnc(N)n4] | > 5.30 |
| Cc1cccc(CNC(=O)c2ccc3sc(-c4ccnc(N)n4)c(C)c3c2)c1 [Example 375, Cc1cccc(CNC(═O)c2ccc3sc(c(C)c3c2)-c4ccnc(N)n4)c1] | > 5.30 |
| CCOC(=O)C1CCN(C(=O)c2ccc3sc(-c4ccnc(N)n4)c(C)c3c2)CC1 [Example 509, CCOC(═O)C1CCN(CC1)C(═O)c2ccc3sc(c(C)c3c2)-c4ccnc(N)n4] | < 5.30 |
| COc1ccc(N2CCN(C(=O)c3ccc4sc(-c5ccnc(N)n5)c(C)c4c3)CC2)cc1 [Example 540, COc1ccc(cc1)N2CCN(CC2)C(═O)c3ccc4sc(c(C)c4c3)-c5ccnc(N)n5] | > 5.30 |
| COCCNC(=O)c1ccc2sc(-c3ccnc(N)n3)c(C)c2c1 [Example 345, COCCNC(═O)c1ccc2sc(c(C)c2c1)-c3ccnc(N)n3] | > 5.30 |
| Cc1c(-c2ccnc(N)n2)sc2ccc(C(=O)NCCN(C)C)cc12 [Example 351, CN(C)CCNC(═O)c1ccc2sc(c(C)c2c1)-c3ccnc(N)n3] | > 5.30 |
| Cc1c(-c2ccnc(N)n2)sc2ccc(C(=O)N(CCN(C)C)Cc3ccccc3)cc12 [Example 524, CN(C)CCN(Cc1ccccc1)C(═O)c2ccc3sc(c(C)c3c2)-c4ccnc(N)n4] | > 5.30 |
| Cc1c(-c2ccnc(N)n2)sc2ccc(C(=O)NCc3ccccc3F)cc12 [Example 384, Cc1c(sc2ccc(cc12)C(═O)NCc3ccccc3F)-c4ccnc(N)n4] | > 5.30 |
| Cc1c(-c2ccnc(N)n2)sc2ccc(C(=O)N3CCc4ccccc4C3)cc12 [Example 498, Cc1c(sc2ccc(cc12)C(═O)N3CCc4ccccc4C3)-c5ccnc(N)n5] | > 5.30 |
| Cc1c(-c2ccnc(N)n2)sc2ccc(C(=O)N3CCN(c4ccc(C(F)(F)F)cn4)CC3)cc12 [Example 568, Cc1c(sc2ccc(cc12)C(═O)N3CCN(CC3)c4ccc(cn4)C(F)(F)F)-c5ccnc(N)n5] | < 5.30 |
| Cc1c(-c2ccnc(N)n2)sc2ccc(C(=O)N3CCN(C(=O)OC(C)(C)C)CC3)cc12 [Example 530, Cc1c(sc2ccc(cc12)C(═O)N3CCN(CC3)C(═O)OC(C)(C)C)-c4ccnc(N)n4] | < 5.30 |
| Cc1ccc([C@@H](C)NC(=O)c2ccc3sc(-c4ccnc(N)n4)c(C)c3c2)cc1 [Example 395, C[C@@H](NC(═O)c1ccc2sc(c(C)c2c1)-c3ccnc(N)n3)c4ccc(C)cc4] | < 5.30 |
| Cc1c(-c2ccnc(N)n2)sc2ccc(C(=O)NCc3ccc(N(C)C)cc3)cc12 [Example 450, CN(C)c1ccc(CNC(═O)c2ccc3sc(c(C)c3c2)-c4ccnc(N)n4)cc1] | < 5.30 |
| CCN(C)C(=O)c1ccc2sc(-c3ccnc(N)n3)c(C)c2c1 [Example 460, CCN(C)C(═O)c1ccc2sc(c(C)c2c1)-c3ccnc(N)n3] | > 5.30 |

Results, then the compound that gave them:

| pIC50 | SMILES |
| --- | --- |
| > 5.30 | Cc1c(-c2ccnc(N)n2)sc2ccc(Cc3cccc(C(=O)Nc4ccc(N5CCOCC5)cc4)c3)cc12 [Example 45, 3-((2-(2-Aminopyrimidin-4-yl)-3-methylbenzo[b]thiophen-5-yl)methyl)-N-(4-morpholinophenyl)benzamide] |
| > 5.30 | Cc1c(-c2ccnc(N)n2)sc2ccc(CNC(=O)c3cccc(Br)n3)cc12 [Example 270, Cc1c(sc2ccc(CNC(═O)c3cccc(Br)n3)cc12)-c4ccnc(N)n4] |
| > 5.30 | Cc1c(-c2ccnc(N)n2)sc2ccc(C(=O)N(C)CC(O)c3ccccc3)cc12 (stereo not shown) [Example 507, CN(CC(O)c1ccccc1)C(═O)c2ccc3sc(c(C)c3c2)-c4ccnc(N)n4] |
| > 5.30 | CCN(CC)CCNC(=O)c1ccc2sc(-c3ccnc(N)n3)c(C)c2c1 [Example 374, CCN(CC)CCNC(═O)c1ccc2sc(c(C)c2c1)-c3ccnc(N)n3] |
| > 5.30 | Cc1c(-c2ccnc(N)n2)sc2ccc(C(=O)NCCc3ccc(O)cc3)cc12 [Example 400, Cc1c(sc2ccc(cc12)C(═O)NCCc3ccc(O)cc3)-c4ccnc(N)n4] |
| > 5.30 | Cc1c(-c2ccnc(N)n2)sc2ccc(C(=O)NCCC3CCCN3C)cc12 (stereo not shown) [Example 386, CN1CCCC1CCNC(═O)c2ccc3sc(c(C)c3c2)-c4ccnc(N)n4] |
| > 5.30 | COc1cc(CNC(=O)c2ccc3sc(-c4ccnc(N)n4)c(C)c3c2)cc(OC)c1 [Example 439, COc1cc(CNC(═O)c2ccc3sc(c(C)c3c2)-c4ccnc(N)n4)cc(OC)c1] |
| > 5.30 | CCC(C)NC(=O)c1ccc2sc(-c3ccnc(N)n3)c(C)c2c1 (stereo not shown) [Example 341, CCC(C)NC(═O)c1ccc2sc(c(C)c2c1)-c3ccnc(N)n3] |
| < 5.30 | Cc1c(-c2ccnc(N)n2)sc2ccc(C(=O)NC3CCCCC3)cc12 [Example 356, Cc1c(sc2ccc(cc12)C(═O)NC3CCCCC3)-c4ccnc(N)n4] |
| > 5.30 | Cc1c(-c2ccnc(N)n2)sc2ccc(C(=O)N(Cc3ccccc3)C(C)C)cc12 [Example 505, CC(C)N(Cc1ccccc1)C(═O)c2ccc3sc(c(C)c3c2)-c4ccnc(N)n4] |
| > 5.30 | Cc1c(-c2ccnc(N)n2)sc2ccc(C(=O)NCc3ccccn3)cc12 [Example 365, Cc1c(sc2ccc(cc12)C(═O)NCc3ccccn3)-c4ccnc(N)n4] |
| > 5.30 | Cc1c(-c2ccnc(N)n2)sc2ccc(C(=O)N(C)C)cc12 [Example 459, CN(C)C(═O)c1ccc2sc(c(C)c2c1)-c3ccnc(N)n3] |
| > 5.30 | Cc1c(-c2ccnc(N)n2)sc2ccc(C(=O)N3C[C@@H](C)N[C@@H](C)C3)cc12 [Example 485, C[C@@H]1CN(C[C@H](C)N1)C(═O)c2ccc3sc(c(C)c3c2)-c4ccnc(N)n4] |
| > 5.30 | CCCC(C)NC(=O)c1ccc2sc(-c3ccnc(N)n3)c(C)c2c1 (stereo not shown) [Example 347, CCCC(C)NC(═O)c1ccc2sc(c(C)c2c1)-c3ccnc(N)n3] |
| < 5.30 | CCN(CC)CCCC(C)NC(=O)c1ccc2sc(-c3ccnc(N)n3)c(C)c2c1 (stereo not shown) [Example 431, CCN(CC)CCCC(C)NC(═O)c1ccc2sc(c(C)c2c1)-c3ccnc(N)n3] |
| > 5.30 | Cc1c(-c2ccnc(N)n2)sc2ccc(C(=O)NCCc3ccccc3F)cc12 [Example 406, Cc1c(sc2ccc(cc12)C(═O)NCCc3ccccc3F)-c4ccnc(N)n4] |
| < 5.30 | Cc1c(-c2ccnc(N)n2)sc2ccc(C(=O)NC(C)C)cc12 [Example 334, CC(C)NC(═O)c1ccc2sc(c(C)c2c1)-c3ccnc(N)n3] |
| > 5.30 | COc1ccc(OC)c(CCNC(=O)c2ccc3sc(-c4ccnc(N)n4)c(C)c3c2)c1 [Example 449, COc1ccc(OC)c(CCNC(═O)c2ccc3sc(c(C)c3c2)-c4ccnc(N)n4)c1] |
| < 5.30 | Cc1c(-c2ccnc(N)n2)sc2ccc(C(=O)N(C)Cc3cccc4ccccc34)cc12 [Example 553, CN(Cc1cccc2ccccc12)C(═O)c3ccc4sc(c(C)c4c3)-c5ccnc(N)n5] |
| > 5.30 | Cc1c(-c2ccnc(N)n2)sc2ccc(C(=O)N3CCN(c4ccc([N+](=O)[O-])cc4)CC3)cc12 [Example 552, Cc1c(sc2ccc(cc12)C(═O)N3CCN(CC3)c4ccc(cc4)[N+]([O−])═O)-c5ccnc(N)n5] |

biological target: T2, recombinant N-terminal GST-tagged human Rho kinase 1 (ROCK1, amino acids 1-535) (Homo sapiens, UniProt Q13464); test: In vitro Rho kinase assay (luciferase-based ATP consumption), ROCK1; format: biochemical; settings: recombinant GST-tagged human ROCK1, luciferase-based ATP consumption; read-out: ROCK1 IC50
T2 construct: ROCK1, amino acids 1-535; purchased Invitrogen Inc. PV-3691
T2 sequence (Q13464 1-535): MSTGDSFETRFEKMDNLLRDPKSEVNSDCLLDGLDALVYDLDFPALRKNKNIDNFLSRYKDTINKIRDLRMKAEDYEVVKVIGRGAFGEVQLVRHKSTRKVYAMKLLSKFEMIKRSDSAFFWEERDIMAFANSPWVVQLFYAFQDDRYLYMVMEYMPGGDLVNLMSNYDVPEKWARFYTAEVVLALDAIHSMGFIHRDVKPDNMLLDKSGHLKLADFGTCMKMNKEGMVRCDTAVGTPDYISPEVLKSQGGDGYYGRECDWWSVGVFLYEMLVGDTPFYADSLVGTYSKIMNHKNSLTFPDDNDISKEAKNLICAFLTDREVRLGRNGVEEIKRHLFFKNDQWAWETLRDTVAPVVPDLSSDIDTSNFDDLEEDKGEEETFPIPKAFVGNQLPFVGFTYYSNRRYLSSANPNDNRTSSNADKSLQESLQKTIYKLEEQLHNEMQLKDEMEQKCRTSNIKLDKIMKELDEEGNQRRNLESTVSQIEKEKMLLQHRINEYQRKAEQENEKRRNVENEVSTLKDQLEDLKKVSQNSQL
Procedure: In Vitro Rho Kinase Assay
Rho kinase biochemical assays described below depend on firefly luciferase-based, indirect measurement of total ATP consumption by the kinase following incubation with substrate and ATP. 25 μl of Rho kinase assay buffer (20 mM Tris-HCL [pH 7.5], 1 mM MgCl2, 0.4 mM CaCl2, 0.15 mM EGTA, 0.1 mg/ml bovine serum albumin) containing 0.82 μg/ml of recombinant N-terminal GST-tagged human Rho kinase 1 (ROCK1, amino acids 1-535, Invitrogen Inc., cat. #PV-3691) or recombinant N-terminal GST-tagged human Rho kinase 2 (ROCK2, amino acids 1-552, Invitrogen Inc., cat #PV3759), 100 μg/ml S6 peptide substrate (related to amino acids 218-249 of the human 40S ribosomal protein S6, and suitable for ROCK1 or ROCK2, e.g. Upstate/Millipore Inc., cat #12-420), and 3 µM ATP are dispensed to wells of a 384 multi-well opaque plate. The plate is centrifuged for 30 seconds at approximately 200×g. 240 nl of test compound in DMSO is dispensed to each well by passive pin transfer. The lag phase of this in vitro kinase reaction permits addition of compounds soon after the reaction initiates. The reaction is allowed to incubate at 30° C. for 2 hours. The assay plates are sealed and maintained in a humidified environment. After 2 hours, 25 μl of easylite protein kinase assay reagent (Perkin-Elmer, Inc.) is dispensed. After an additional 10 minute incubation at room temperature (about 22° C.), luminescence activity is measured on a Molecular Devices Analyst multi-mode plate reader or other suitable plate reader. Kinase inhibition results in less ATP consumption, and therefore increased luminescence signal. Negative control activity is measured with DMSO lacking any test compound. The positive control is 2-methyl-1-(4-methylisoquinolin-5-ylsulfonyl)perhydro-1,4-diazepine hydrochloride (aka H-1152P, HCl salt). Efficacy is measured as a percentage of positive control activity. […] The designation NT means the cited example was not tested.

| SMILES | pIC50 |
| --- | --- |
| COc1ccc2cc(C(C)C(=O)NCc3ccc4sc(-c5ccnc(N)n5)c(C)c4c3)ccc2c1 (stereo not shown) [Example 307, COc1ccc2cc(ccc2c1)[C](C)C(═O)NCc3ccc4sc(c(C)c4c3)-c5ccnc(N)n5] | > 5.30 |
| Cc1cc(C(=O)NCc2ccc3sc(-c4ccnc(N)n4)c(C)c3c2)ccc1Br [Example 286, Cc1cc(ccc1Br)C(═O)NCc2ccc3sc(c(C)c3c2)-c4ccnc(N)n4] | < 5.30 |
| Cc1c(-c2ccnc(N)n2)sc2ccc(CNC(=O)C(NC(=O)OC(C)(C)C)C(C)C)cc12 (stereo not shown) [Example 293, CC(C)[C](NC(═O)OC(C)(C)C)C(═O)NCc1ccc2sc(c(C)c2c1)-c3ccnc(N)n3] | < 5.30 |

Other lines, results leading:

| pIC50 | SMILES |
| --- | --- |
| > 5.30 | Cc1c(-c2ccnc(N)n2)sc2ccc(Cc3cccc(C(=O)Nc4ccc(N5CCOCC5)cc4)c3)cc12 [Example 45, 3-((2-(2-Aminopyrimidin-4-yl)-3-methylbenzo[b]thiophen-5-yl)methyl)-N-(4-morpholinophenyl)benzamide] |
| > 5.30 | Cc1c(-c2ccnc(N)n2)sc2ccc(CNC(=O)c3cccc(Br)n3)cc12 [Example 270, Cc1c(sc2ccc(CNC(═O)c3cccc(Br)n3)cc12)-c4ccnc(N)n4] |
